From publication PMC10714399, “Open Source Antibiotics: Simple Diarylimidazoles Are Potent against Methicillin-Resistant Staphylococcus aureus” (ACS Infectious Diseases, 2023)
≈ marks a conversion by molar mass, not a printed value. Like-named read-outs stand apart in the source and are kept apart here.

Key:
[1] = system: Staphylococcus aureus NCTC 13373 (mecA-positive; methicillin-resistant); experiment: In vitro antibacterial activity, MIC (UCL School of Pharmacy assay), MRSA; assay type: cell-based; settings: for MIC: Staphylococcus aureus
Experimental: (§1) Staphylococcus aureus NCTC 13373 (mecA-positive; methicillin-resistant, NCTC 13373) was supplied by the National Collection of Type Cultures (NCTC), Public Health England, United Kingdom. Other organisms, S. aureus ATCC 25923 (methicillin-susceptible) and Enterococcus faecalis ATCC 51299 (vanA-positive; vancomycin-resistant), were obtained from the American Type Culture Collection (ATCC) via LGC Standards, UK. A suspension of each organism was prepared from an overnight plate culture (tryptone soya agar) in phosphate-buffered saline (PBS) and adjusted to an absorbance reading at 600 nm of 0.1, which is approximately equivalent to 1 × 10^8 colony-forming units (CFU) per mL. The cultures were further diluted 1:100 in isosensitest broth (Oxoid, United Kingdom) before 100 μL was used to inoculate each well of a 96-well plate that contained diluted samples of the OSA series. Compounds were evaluated over a 2-fold dilution range from 32 to 0.03 μg/mL. Stocks of the samples were prepared in 100% DMSO at […] before being diluted in isosenstitest broth. The highest concentration of DMSO present was 2%, which has been previously shown not to inhibit the growth of the microorganisms (data not shown). […] Vancomycin was used as a quality control compound.

[2] = system: S. aureus ATCC 25923 (methicillin-susceptible); experiment: In vitro antibacterial activity, MIC (UCL), MSSA; assay type: cell-based, Staphylococcus aureus; settings: for MIC: Staphylococcus aureus
Experimental: as §1

[3] = system: Enterococcus faecalis ATCC 51299 (vanA-positive; vancomycin-resistant); experiment: In vitro antibacterial activity, MIC (UCL), VRE; assay type: cell-based
Experimental: as §1

[4] = system: MRC-5SV2 (human lung fibroblast cell line); experiment: Toxicity against MRC-5SV2; assay type: cell-based; settings: MRC5 cells
Experimental: (§2) ADME and toxicity for compounds were measured according to procedures outlined in the manuscript submitted in parallel to this one;2 other procedures were used for those compounds analysed by Monash University (in vitro ADME) or UCL (toxicity), both described in the main

[5] = system: PMM (primary mouse macrophages); experiment: Toxicity against PMM; assay type: cell-based; settings: PMM
Experimental: as §2

[6] = UCL assay, read-out: MRSA MIC (ug/mL) (UCL)
[7] = UCL assay, read-out: MSSA MIC (ug/mL) (UCL)

SMILES: Cc1ccc2nc(-c3ccccn3)c(NCc3ccccc3)n2c1 [OSA_000842]
- MIC ([1]; UCL, read-out: MRSA MIC (UCL)): 8 µg/mL (≈ 25.4 µM)
- MIC ([2]; read-out: MSSA MIC (UCL)): 4 µg/mL (≈ 12.7 µM)
- MIC ([3]; read-out: VRE MIC (UCL)): 32 µg/mL (≈ 102 µM)

SMILES: COc1ccn2c(Nc3ccccc3F)c(-c3ccccn3)nc2c1 [OSA_000851]
- MIC ([1]; UCL, read-out: MRSA MIC (UCL)): 8 µg/mL (≈ 23.9 µM)
- MIC ([2]; read-out: MSSA MIC (UCL)): 4 µg/mL (≈ 12 µM)
- MIC ([3]; read-out: VRE MIC (UCL)): 16 µg/mL (≈ 47.9 µM)

SMILES: COc1ccn2c(NCc3cn(C)cn3)c(-c3ccccn3)nc2c1 [OSA_000853]
- MIC ([1]; UCL, read-out: MRSA MIC (UCL)): > 32 µg/mL
- MIC ([3]; read-out: VRE MIC (UCL)): > 32 µg/mL

SMILES: COc1ccn2c(Nc3ccnc(C)c3)c(-c3ccccn3)nc2c1 [OSA_000854]
- MIC ([1]; UCL, read-out: MRSA MIC (UCL)): > 32 µg/mL
- MIC ([3]; read-out: VRE MIC (UCL)): > 32 µg/mL

SMILES: c1ccc(-c2nc3ncccn3c2-c2ccc3occc3c2)nc1 [OSA_000863]
- MIC ([1]; UCL, read-out: MRSA MIC (UCL)): > 32 µg/mL
- MIC ([3]; read-out: VRE MIC (UCL)): > 32 µg/mL

SMILES: COc1ccn2c(Nc3ccc4c(c3)OCCO4)c(-c3c[nH]cn3)nc2c1 [OSA_000866]
- MIC ([1]; UCL, read-out: MRSA MIC (UCL)): > 32 µg/mL
- MIC ([3]; read-out: VRE MIC (UCL)): > 32 µg/mL

SMILES: COc1ccc2nc(-c3c[nH]cn3)c(Nc3ccc4c(c3)OCCO4)n2c1 [OSA_000867]
- MIC ([1]; UCL, read-out: MRSA MIC (UCL)): > 32 µg/mL
- MIC ([3]; read-out: VRE MIC (UCL)): > 32 µg/mL

SMILES: c1cnc(-c2nc3n(c2-c2ccc4occc4c2)CCC3)cn1 [OSA_000873]
- MIC ([1]; UCL, read-out: MRSA MIC (UCL)): > 32 µg/mL
- MIC ([2]; read-out: MSSA MIC (UCL)): > 32 µg/mL
- MIC ([3]; read-out: VRE MIC (UCL)): > 32 µg/mL

SMILES: c1ncc(-c2nc3n(c2-c2ccc4occc4c2)CCC3)cn1 [OSA_000874]
- MIC ([1]; UCL, read-out: MRSA MIC (UCL)): > 32 µg/mL
- MIC ([3]; read-out: VRE MIC (UCL)): > 32 µg/mL

SMILES: CC(=O)c1ccc(-c2c(-c3ccccn3)nc3n2CCC3)cc1 [OSA_000973]
- MIC ([1]; UCL, read-out: MRSA MIC (UCL)): > 32 µg/mL
- MIC ([3]; read-out: VRE MIC (UCL)): > 32 µg/mL

SMILES: Cc1ccccc1-c1c(-c2ccccn2)nc2n1CCC2 [OSA_000977]
- MIC ([1]; UCL, read-out: MRSA MIC (UCL)): 32 µg/mL (≈ 116 µM)
- MIC ([3]; read-out: VRE MIC (UCL)): 32 µg/mL (≈ 116 µM)

SMILES: Fc1ccc(NCc2c(-c3ccccn3)nc3ccccn23)cc1 [OSA_001019]
- MIC [1, 6]: > 32 µg/mL
- MIC [2, 7]: > 32 µg/mL
- MRC5 TC50 [4]: 64 µM
- PMM TC50 [5]: 64 µM

SMILES: Cc1ccc2nc(-c3ccccc3)cn2c1 [OSA_001026]
- MIC [1, 6]: > 32 µg/mL
- MIC [2, 7]: > 32 µg/mL
- MRC5 TC50 [4]: 64 µM
- PMM TC50 [5]: 64 µM

SMILES: Cc1ccc2nc(-c3ccccc3)c(CNc3ccc(F)cc3)n2c1 [OSA_001027]
- MIC [1, 6]: > 32 µg/mL
- MIC [2, 7]: > 32 µg/mL
- MRC5 TC50 [4]: 64 µM
- PMM TC50 [5]: 64 µM

SMILES: COc1ccn2c(Nc3ccc(F)cn3)c(-c3ccccn3)nc2c1.O=CO [compound 839]
- MRSA MIC [1]: 16 µg/mL
- VRE MIC [3]: > 32 µg/mL

SMILES: Cc1ccn2c(NC3CCCC3)c(-c3ccc(N(C)C)cc3)nc2c1 [compound 840]
- MRSA MIC [1]: > 32 µg/mL
- VRE MIC [3]: > 32 µg/mL

SMILES: Cc1ccc2nc(-c3ccccn3)c(Nc3ccc4c(c3)OCCO4)n2c1 [compound 841]
- MRSA MIC [1]: 8 µg/mL
- VRE MIC [3]: 16 µg/mL

SMILES: Cc1ccc2nc(-c3ccccn3)c(NCc3ccccc3)n2c1 [compound 842]
- MRSA MIC [1]: 8 µg/mL
- MSSA MIC [2]: 4 µg/mL
- VRE MIC [3]: 32 µg/mL

SMILES: COc1ccn2c(Nc3cccc(F)c3)c(-c3cscn3)nc2c1.O=CO [compound 843]
- MRSA MIC [1]: > 32 µg/mL
- VRE MIC [3]: > 32 µg/mL

SMILES: CN(C)Cc1ccc2nc(-c3ccccn3)c(Nc3cccc(F)c3)n2c1 [compound 844]
- MRSA MIC [1]: > 32 µg/mL
- VRE MIC [3]: > 32 µg/mL

SMILES: c1ccn2c(NC3CCCC3)c(-c3nccs3)nc2c1 [compound 845]
- MRSA MIC [1]: > 32 µg/mL
- VRE MIC [3]: > 32 µg/mL

SMILES: Cc1ccn2c(Nc3ccc(F)cc3)c(-c3ccc(N(C)C)cc3)nc2c1 [compound 846]
- MRSA MIC [1]: > 32 µg/mL
- VRE MIC [3]: > 32 µg/mL

SMILES: Cn1ccnc1-c1nc2ccccn2c1Nc1ccc(F)cc1 [compound 847]
- MIC ([1]; read-out: MRSA MIC): > 32 µg/mL
- MIC ([3]; read-out: VRE MIC): > 32 µg/mL

SMILES: COc1ccn2c(Nc3cccc(F)c3)c(-c3cn(C)cn3)nc2c1 [compound 848]
- MRSA MIC [1]: > 32 µg/mL
- VRE MIC [3]: > 32 µg/mL

SMILES: COc1ccc(-c2nc3ccc(C)cn3c2NCc2ccco2)cc1OC.Cl [compound 849]
- MRSA MIC [1]: > 32 µg/mL
- VRE MIC [3]: > 32 µg/mL

SMILES: c1ccc(-c2nc3ccccn3c2N2CCOCC2)nc1 [compound 850]
- MRSA MIC [1]: > 32 µg/mL
- VRE MIC [3]: > 32 µg/mL

SMILES: COc1ccn2c(Nc3ccccc3F)c(-c3ccccn3)nc2c1 [compound 851]
- MRSA MIC [1]: 8 µg/mL
- MSSA MIC [2]: 4 µg/mL
- VRE MIC [3]: 16 µg/mL

SMILES: COCc1ccc2nc(-c3ccccn3)c(Nc3cccc(F)c3)n2c1 [compound 852]
- MRSA MIC [1]: > 32 µg/mL
- VRE MIC [3]: > 32 µg/mL

SMILES: COc1ccn2c(NCc3cn(C)cn3)c(-c3ccccn3)nc2c1.O=CO [compound 853]
- MRSA MIC [1]: > 32 µg/mL
- VRE MIC [3]: > 32 µg/mL

SMILES: COc1ccn2c(Nc3ccnc(C)c3)c(-c3ccccn3)nc2c1 [compound 854]
- MRSA MIC [1]: > 32 µg/mL
- VRE MIC [3]: > 32 µg/mL

SMILES: c1ccc(-c2nc3ncccn3c2-c2ccc3occc3c2)nc1 [compound 863]
- MRSA MIC [1]: > 32 µg/mL
- VRE MIC [3]: > 32 µg/mL

SMILES: N#Cc1cccc(-c2c(-c3ccccn3)nc3n2CCC3)c1 [compound 864]
- MIC ([1]; read-out: MRSA MIC): > 32 µg/mL
- MIC ([3]; read-out: VRE MIC): > 32 µg/mL

SMILES: COc1ccn2c(Nc3ccc4c(c3)OCCO4)c(-c3c[nH]cn3)nc2c1 [compound 866]
- MRSA MIC [1]: > 32 µg/mL
- VRE MIC [3]: > 32 µg/mL

SMILES: COc1ccc2nc(-c3c[nH]cn3)c(Nc3ccc4c(c3)OCCO4)n2c1 [compound 867]
- MRSA MIC [1]: > 32 µg/mL
- VRE MIC [3]: > 32 µg/mL

SMILES: FC(F)(F)Oc1ccc(-c2c(-c3ccccn3)nc3n2CCC3)cc1 [compound 868]
- MIC ([1]; read-out: MRSA MIC): 8 µg/mL (≈ 23.2 µM)
- MIC ([3]; read-out: VRE MIC): 32 µg/mL (≈ 92.7 µM)

SMILES: c1cnc(-c2nc3n(c2-c2ccc4occc4c2)CCC3)cn1 [compound 873]
- activity against MRSA, in words [1]: inactive
- MIC ([1]; read-out: MRSA MIC): > 32 µg/mL
- MIC ([2]; read-out: MSSA MIC): > 32 µg/mL
- MIC ([3]; read-out: VRE MIC): > 32 µg/mL

SMILES: c1ncc(-c2nc3n(c2-c2ccc4occc4c2)CCC3)cn1 [compound 874]
- activity against MRSA, in words [1]: inactive
- MIC ([1]; read-out: MRSA MIC): > 32 µg/mL
- MIC ([3]; read-out: VRE MIC): > 32 µg/mL

SMILES: Clc1ccc(-c2c(-c3ccccn3)nc3n2CCC3)cc1Cl [compound 876]
- MIC ([1]; read-out: MRSA MIC): 8 µg/mL (≈ 24.2 µM)
- MIC ([3]; read-out: VRE MIC): 8 µg/mL (≈ 24.2 µM)

SMILES: CC(=O)c1ccc(-c2c(-c3ccccn3)nc3n2CCC3)cc1 [compound 973]
- activity against MRSA, in words [1]: not tolerated
- MIC ([1]; read-out: MRSA MIC): > 32 µg/mL
- MIC ([3]; read-out: VRE MIC): > 32 µg/mL

SMILES: Cc1cccc(-c2c(-c3ccccn3)nc3n2CCC3)c1 [compound 976]
- MIC ([1]; read-out: MRSA MIC): 8 µg/mL (≈ 29.1 µM)
- MIC ([3]; read-out: VRE MIC): 32 µg/mL (≈ 116 µM)

SMILES: Cc1ccccc1-c1c(-c2ccccn2)nc2n1CCC2 [compound 977]
- MIC ([1]; read-out: MRSA MIC): 32 µg/mL (≈ 116 µM)
- MIC ([3]; read-out: VRE MIC): 32 µg/mL (≈ 116 µM)
